From ChEMBL document CHEMBL1201862, “PubChem BioAssay data set” (2004)
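Grown in 96-well plates, cells were treated for 48 hours with each compound at five concentrations. Insufficient inhibition: endpoint recorded as highest concentration tested. At the GI50, growth is halved.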 Active and inactive are the calls of the source. Cut-off read from the data, not from the text of the source: active = GI50 up to about 1.1 µM and inactive = higher.

Assays:
Assay in all cases: inhibition of tumour cell growth, NCI panel, 48 h
SN12C = tested on: SN12C
HL-60 = tested on: HL-60
ACHN = tested on: ACHN
Malme-3M = tested on: Malme-3M
CCRF-CEM = tested on: CCRF-CEM
LOX IMVI = tested on: LOX IMVI
UO-31 = tested on: UO-31
SNB-19 = tested on: SNB-19
RPMI-8226 = tested on: RPMI-8226
HOP-92 = tested on: HOP-92
NCI-H226 = tested on: NCI-H226
UACC-62 = tested on: UACC-62
NCI/ADR-RES = tested on: NCI/ADR-RES
U-251 = tested on: U-251

Measured: GI50

COC(=O)C1C(C(=O)OC)N(Cc2ccccc2)C(=O)N1Cc1ccccc1 (centres undefined)
inactive: SN12C > 100 µM | HL-60 13.3 µM | ACHN > 100 µM | Malme-3M > 100 µM | CCRF-CEM 57.4 µM | LOX IMVI > 100 µM | UO-31 87.7 µM | SNB-19 > 100 µM | RPMI-8226 35 µM | HOP-92 > 100 µM | NCI-H226 > 100 µM | UACC-62 64.6 µM | NCI/ADR-RES > 100 µM | U-251 > 100 µM
